{
  "source": "patent US20040063156A1",
  "about": "“Materials and methods relating to the diagnosis and treatment of diabetes and obesity” (Rodaris Pharmaceuticals Limited, priority 1996, published 2004)",
  "assay": "Urinary excretion of IPG P-type in diabetic patients treated with metformin",
  "assay_type": "in vivo, human",
  "conditions": "overweight/obese NIDDM patients on metformin, urine, FIGS. 5A,B",
  "from_the_text": "A cross-sectional study was undertaken with random spot samples collected at outpatients clinics. The patients included NIDDM subjects controlled by diet alone, by sulphonylureas, by metformin, by insulin or a combination of any of these treatments. Only a limited number of IDDM subjects were available. In the present survey, male subjects were used, this avoided complications arising from varying hormone profiles in women of different ages, in particular with or without HRT or contraceptive pills. […] In addition to the measurement of IPG P-type and IPG A-type in urine the following clinical data was made available: […]",
  "data": [
    {"smiles": "CN(C)C(=N)N=C(N)N", "note": "[metformin]", "values": [
      {"measurement": "effect on pattern of excretion of IPG P-type", "value": "fails to restore the pattern of excretion of IPG P-type to normal"}
    ]}
  ]
}
